In US20250011368A1, “DLL3 TARGETING PEPTIDES AND CONSTRUCTS THEREOF” (MARIANA ONCOLOGY INC., priority 2023, published 2025):
Numbered stars: 1 amine (or outer) side, 2 acyl side, 3 side chain; on linkers, the order of the positions; unused ones are H or OH. Bridge positions count the residues as written; N and C are the ends. Square brackets hold non-standard residues; d marks the D form. Peptide text beside a SMILES is read from it. * marks the point of attachment. Ala(piperidin-4-yl) = O=C([C@H](CC1CCN([*:3])CC1)N[*:1])[*:2]; DOTA = O=C(O)CN1CCN(CC(=O)O)CCN(CC(=O)*)CCN(CC(=O)O)CC1; 2Nal = N[C@@H](Cc1ccc2ccccc2c1)C(=O)O; Lauroyl = CCCCCCCCCCCC(=O)*

Experiments:
CT26.DLL3 cells [1] = test: Internalization (out of bound fraction) of [177Lu]Lu-test peptide, CT26.DLL3 cells; assay type: cell-based; conditions: 1 hour at 37° C., glycine pH 2.5 wash
Procedure, shortened: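 [177Lu]Lu-peptide (labelled at 80 °C, pH ~5, 17-20 min) incubated with 5-25 million CT26.DLL3 cells in 1% PBSA, 0.8 μCi, 1 h at 37 °C. Surface-bound activity stripped twice with 50 mM glycine pH 2.5, 3 min; NaOH-solubilized cell activity gamma-counted as internalized fraction, binned ≤25%, 25-50%, >50%.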

SHP-77 tumors = test: Ex vivo biodistribution of radiolabeled peptides in nude mice bearing SHP-77 tumors; conditions: [177Lu]Lu labelling, nude mice bearing SHP-77 tumors (n = 3), 24 hours post-injection
Procedure, shortened: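 Nude mice bearing SHP-77 xenografts (200-400 mm^3) or tumor-naïve mice (5-7 weeks) received an intravenous tail-vein bolus of [^177Lu]Lu-peptide and were euthanized at pre-set time points. Tissues were weighed and gamma-counted, with counts decay-corrected to injection time. Values are % IA/g per tissue from the injected activity of each mouse.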

human DLL3 = target: T1, human DLL3 (Homo sapiens, UniProt Q9NYJ7); test: Affinity determination by Surface Plasmon Resonance (SPR); assay type: binding; conditions: 25° C., biotinylated human DLL3 immobilized on streptavidin sensor chip, 1:1 binding model; read-out: SPR KD
T1 sequence (Q9NYJ7 27-618): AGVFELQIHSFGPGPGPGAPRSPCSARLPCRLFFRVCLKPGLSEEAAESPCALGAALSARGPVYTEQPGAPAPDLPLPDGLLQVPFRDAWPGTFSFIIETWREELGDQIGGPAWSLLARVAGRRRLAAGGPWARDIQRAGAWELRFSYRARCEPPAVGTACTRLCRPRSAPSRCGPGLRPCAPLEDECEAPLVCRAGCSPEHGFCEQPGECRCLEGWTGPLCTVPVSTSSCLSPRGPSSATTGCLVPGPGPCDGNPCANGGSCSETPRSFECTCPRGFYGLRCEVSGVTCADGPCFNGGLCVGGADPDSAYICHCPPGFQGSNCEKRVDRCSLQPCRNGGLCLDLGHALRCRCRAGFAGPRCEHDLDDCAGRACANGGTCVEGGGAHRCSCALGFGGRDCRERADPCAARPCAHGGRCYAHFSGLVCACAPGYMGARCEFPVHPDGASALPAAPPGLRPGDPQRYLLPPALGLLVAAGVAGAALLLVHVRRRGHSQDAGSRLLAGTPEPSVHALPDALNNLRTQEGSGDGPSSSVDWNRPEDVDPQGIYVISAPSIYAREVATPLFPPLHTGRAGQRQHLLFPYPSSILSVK
Procedure, shortened: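 Biotinylated human DLL3 was captured on a streptavidin chip with a reference surface. Compounds at several concentrations were injected at 100 μL/minute in phosphate buffer (137 mM NaCl, 2.7 mM KCl, 0.05% P20, 2% DMSO). Affinity and kinetics came from 1:1 model fits of the sensorgrams.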

SHP-77 cells [2] = test: Internalization (out of bound fraction) of [177Lu]Lu-test peptide, SHP-77 cells; assay type: cell-based; conditions: SHP77 cells, 1 hour at 37° C., after 50 mM Glycine pH=2.5 wash
Method: [^177Lu]LuCl3 was received from venders in HCl solution. For every mCi of [^177Lu]LuCl3 added to the reaction vial (1.5 mL Eppendorf vial), ammonium acetate buffer (0.2 M, pH 4.9, 100 μL, containing 1% w/v ascorbic acid and 6% v/v ethanol) and peptide conjugate (1 nmol). A peptide conjugate of the present disclosure is also referred to herein as a “chelator-peptide”. The pH of the solution was determined to be approximately 5 by using pH strips. The reaction vial was incubated at 80° C., 700 RPM for 17-20 minutes. A sample from the reaction was analyzed by RP-HPLC using an Agilent Infinity II 1260 HPLC to determine reaction completion and radiochemical purity of [^177Lu]Lu-chelator-peptide. […]
Total uptake: Cells were incubated with 300 μL (0.8 μCi) of the incubation buffer (containing radiolabeled peptide [^177Lu] Lu-test peptide) for 1 hour at 37° C. […] The supernatant and washes were combined and counted together as “unbound fraction” in a gamma counter. The cells were then resuspended in 300 μL of 1% PBS+1% BSA and counted in the gamma counter as “bound fraction”.
Internalization: The resuspended cells in 300 μl of 1% PBSA and counted in the gamma counter as “bound fraction” were collected in 1.5 mL Eppendorf tube and pelleted. […] This was counted in the gamma counter as “internalized fraction”. […]

CT26.DLL3 cells [3] = test: Cell binding (total uptake) of [177Lu]Lu-test peptide, CT26.DLL3 cells; assay type: cell-based; conditions: 1 hour at 37° C.
Procedure, shortened: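 CT26.DLL3 cells (5–25 million/condition) in 1% PBSA incubated 1 h at 37°C with [177Lu]Lu-labelled peptide (0.8 μCi in 300 μL), radiolabelled at pH ~5, 80°C. Cells pelleted, washed twice with cold PBS+1% BSA; bound and unbound fractions gamma-counted, uptake binned as ≤25%, 25–50%, >50%.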

SHP-77 cells [4] = test: Cell binding (total uptake) of [177Lu]Lu-test peptide, SHP-77 cells; assay type: cell-based; conditions: SHP77 cells, 1 hour at 37° C., bound fraction
Method: [^177Lu]LuCl3 was received from venders in HCl solution. For every mCi of [^177Lu]LuCl3 added to the reaction vial (1.5 mL Eppendorf vial), ammonium acetate buffer (0.2 M, pH 4.9, 100 μL, containing 1% w/v ascorbic acid and 6% v/v ethanol) and peptide conjugate (1 nmol). A peptide conjugate of the present disclosure is also referred to herein as a “chelator-peptide”. The pH of the solution was determined to be approximately 5 by using pH strips. The reaction vial was incubated at 80° C., 700 RPM for 17-20 minutes. A sample from the reaction was analyzed by RP-HPLC using an Agilent Infinity II 1260 HPLC to determine reaction completion and radiochemical purity of [^177Lu]Lu-chelator-peptide. HPLC conditions: Waters XBridge BEH C18 Column, 130 Å, 3.5 um, 4.6 mm×250 mm; mobile phase: Solvent A=water (with 0.1% formic acid), solvent B=acetonitrile (with 0.1% formic acid). Gradients: 25-45% B in 10 minutes, 45-65% B in 12 minutes, 65-90% in 6 minutes at a flow rate of 0.5 mL/minute. Required amounts of the product was formulated in 1% PBSA for cell studies.
The study was conducted using SHP-77, CT26.WT, and CT26.DLL3 cells (Table 7) Adherent cell studies: The cells were cultured in appropriate culture media (20 mL) in tissue culture treated T150 flasks at 37° C. and 5% CO2. Adherent cells were detached (60-70% confluent) using 5 mL Versene at 37° C. for 3 minutes. After confirming the viability using countess and count of detached cells using Trypan blue, the cells were centrifuged at 4° C. for 5 minutes (1,000 rpm). The cell pellet obtained was washed once with PBS and resuspended in 1% PBSA to obtain the desired cell concentration (5-25 million cells/mL).
Suspension cell studies: The cells were cultured in appropriate culture media (20 mL) in tissue culture treated T150 flasks at 37° C. and 5% CO2. After confirming the viability and count of detached cells using Trypan blue, the cells were centrifuged at 4° C. for 5 minutes (1,000 rpm). The cell pellet obtained was washed once with PBS and resuspended in 1% PBSA to obtain the desired cell concentration (5-25 million cells/mL).
Cell numbers used for the assay were in the range of 5 million cells/condition −25 million cells/condition.
Total uptake: Cells were incubated with 300 μL (0.8 μCi) of the incubation buffer (containing radiolabeled peptide [^177Lu] Lu-test peptide) for 1 hour at 37° C. (Table 8). Post incubation, the cells were pelleted and washed 2 times using cold PBS+1% BSA. The supernatant and washes were combined and counted together as “unbound fraction” in a gamma counter. The cells were then resuspended in 300 μL of 1% PBS+1% BSA and counted in the gamma counter as “bound fraction”.
In these Tables, “A” represents %≤25; “B” represents 25<%≤50; “C” represents %>50.

kidney uptake (% IA/g) (SHP-77 tumors; kidney): C (0 < % IA/g ≤ 10 in kidney) | tumor uptake (% IA/g) (SHP-77 tumors; tumor): A (0 < % IA/g ≤ 5 in tumor) | Kd (human DLL3): 1 to 10 nM
Structure (SMILES): CCCCCCCCCCCC(=O)NCCCC[C@@H]1NC(=O)[C@H](Cc2ccc3ccccc3c2)NC(=O)[C@H](CC(N)=O)NC(=O)[C@H](CC2CCNCC2)NC(=O)[C@@H](NC(=O)[C@@H](NC(=O)[C@@H](NC(=O)[C@H](Cc2c[nH]c3ccccc23)NC(C)=O)[C@@H](C)O)[C@@H](C)CC)CSSC[C@@H](C(=O)N[C@@H](Cc2c[nH]c3ccccc23)C(=O)N2CCC[C@H]2C(=O)N[C@H](CCCCNC(=O)CN2CCN(CC(=O)O)CCN(CC(=O)O)CCN(CC(=O)O)CC2)C(N)=O)NC(=O)[C@H](CC(=O)O)NC1=O [compound 326, Ac-W-T-I-C(3)-[3-(4-piperidinyl)-Ala]-N-(2Nal)-K(C12)-D-C(3)-W-P-[D-Lys(DOTA)]-NH2] (Ac-WTIC[Ala(piperidin-4-yl)]N[2Nal]K(Lauroyl)DCWP[dK](DOTA)-NH2; disulfide 4-10)
% Internalization (out of bound fraction) (CT26.DLL3 cells [1]): C (%>50) | % Internalization (out of bound fraction) (SHP-77 cells [2]): B (25<%≤50) | % Binding (CT26.DLL3 cells [3]): A (%≤25) | % Binding (SHP-77 cells [4]): A (%≤25)
